Data on five molecules can be found in BindingDB's records for patent US20250214965 (Hangzhou Innogate Pharma, 2025).

In this assay the target is T1, Kinesin-like protein KIF18A (Homo sapiens, UniProt Q8NI77).
T1 sequence (Q8NI77 whole entry): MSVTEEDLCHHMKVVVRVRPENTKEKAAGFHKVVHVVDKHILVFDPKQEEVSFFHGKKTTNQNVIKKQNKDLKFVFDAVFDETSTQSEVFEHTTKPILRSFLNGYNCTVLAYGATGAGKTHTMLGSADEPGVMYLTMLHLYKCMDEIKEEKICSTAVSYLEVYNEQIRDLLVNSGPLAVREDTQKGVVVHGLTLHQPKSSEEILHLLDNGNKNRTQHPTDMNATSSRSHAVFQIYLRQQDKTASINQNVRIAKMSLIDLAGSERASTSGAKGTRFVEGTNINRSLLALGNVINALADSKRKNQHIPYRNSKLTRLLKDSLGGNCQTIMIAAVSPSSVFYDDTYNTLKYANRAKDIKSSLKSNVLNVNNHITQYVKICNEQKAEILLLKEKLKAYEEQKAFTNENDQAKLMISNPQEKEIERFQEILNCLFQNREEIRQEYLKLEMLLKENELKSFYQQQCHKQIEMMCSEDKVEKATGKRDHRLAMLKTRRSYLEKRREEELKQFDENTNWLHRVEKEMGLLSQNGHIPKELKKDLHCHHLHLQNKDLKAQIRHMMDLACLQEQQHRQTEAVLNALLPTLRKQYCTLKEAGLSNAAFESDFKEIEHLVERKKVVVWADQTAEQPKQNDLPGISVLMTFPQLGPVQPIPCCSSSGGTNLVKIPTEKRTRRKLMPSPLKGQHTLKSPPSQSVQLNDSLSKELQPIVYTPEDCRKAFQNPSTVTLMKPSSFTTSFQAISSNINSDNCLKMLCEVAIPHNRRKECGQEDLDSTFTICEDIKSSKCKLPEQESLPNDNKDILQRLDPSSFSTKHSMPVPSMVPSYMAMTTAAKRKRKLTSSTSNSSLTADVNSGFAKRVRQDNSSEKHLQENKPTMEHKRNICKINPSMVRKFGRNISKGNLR
The assay is described as follows: Inhibition of KIF18A Enzyme Activity. On the procedure: The ADP-Glo method was used to test the enzymatic activity of KIF18A. The compound was diluted 3-fold with DMSO at a starting concentration of 3000 nM, for a total of ten concentrations, and tested in duplicate. Echo was used to transfer 25 nL of the diluted compound to a 384-well plate, and 2.5 μL of enzyme working solution was added. Plate was centrifuged at 1000 rpm for 1 min, and incubated at 25° C. for 10 min. 2.5 μL of ATP and substrate solution was added to start the reaction, and plate was incubated at 25° C. for 60 min. 4 μL of ADP-Glo solution was added to the 384-well plate, and plate was incubated at 25° C. for 40 min. 8 μL of detection solution was added and incubated at 25° C. for 40 min, and BMG was used to read the […] value. Inhibition rate was calculate according to the following formula: Inhibition rate (%)=(DMSO well−compound well)/(DMSO well−blank control well)×100%. The IC50 value of each compound was analyzed using the nonlinear regression method of XLFit 5.5.0 software. The formula is: Y=Bottom+(Top−Bottom)/(1+10^((Log IC50−X)*HillSlope)).
Regarding `Cc1cc(NC(=O)c2ccc(NS(=O)(=O)[C@H](C)CO)cc2N2CCC(=C(F)F)CC2)nc(N2CCC(F)(F)CC2)n1` [US20250214965, Compound 68], the IC50 (as a rule, the point on the concentration scale where inhibition reaches its midpoint) was under 50 nM.

In the case of `Cc1cc(NC(=O)c2ccc(NS(=O)(=O)[C@@H](C)CO)cc2N2CCC(=C(F)F)CC2)nc(N2CCC(F)(F)CC2)n1` [US20250214965, Compound 69], the IC50 is under 100 nM.

Turning to `Cc1cc(NC(=O)c2ccc(NS(=O)(=O)[C@H](C)CO)cc2N2CCC(=C(F)F)CC2)nc(N2CCC(F)(F)CC2)c1` [US20250214965, Compound 82], the IC50 is under 50 nM.

The molecule `Cc1cc(NC(=O)c2ccc(NS(=O)(=O)CCO)cc2N2CCC3(CC2)CC3)nc(N2CCC(F)(F)CC2)c1F` [US20250214965, Compound 85] had an IC50 of under 50 nM.

In turn, `Cc1cc(NC(=O)c2ccc(NS(=O)(=O)CCO)cc2N2CCC(=C(F)F)CC2)nc(N2CCC(F)(F)CC2)c1F` [US20250214965, Compound 79] had an IC50 of under 50 nM.
